Test system: Human RSV-A (“Long” strain)
Assay: RSV-A in vitro cytoprotection assay in HEp-2 cells (ATPlite readout)
Format: cell-based
Conditions: human respiratory syncytial virus, 96 h, 4-day incubation, ATPlite cell viability (CPE protection)
Source text: RSV is a single stranded negative sense RNA virus that causes respiratory tract infections which can be dangerous to infants, the elderly, and immunosuppressed individuals. Currently there is no vaccine, and therapeutic options are both costly and of limited effectiveness. These approved treatments are Ribavirin, and Palivizumab/Synagis (a monoclonal antibody). RSV has two genotypes, A and B, which differ primarily in the structure of the virus' surface “G” attachment protein. Our current primary screen focusses on RSV-A and uses an in vitro cytoprotection assay where compounds are added in 2-fold dilutions to cells which are then subjected to fully replicative viral particles. Cell viability is measured several days later along with separate measurements of compound cytotoxicity. This report focuses on the results of our most recent screening of compounds.
HEp-2 cells, (originally derived from tumors grown in irradiated-cortisonised weanling rats that had been injected with epidermoid carcinoma tissue from a person's larynx, but later found to be indistinguishable from HeLa cells by PCR DNA analysis), were used for the culturing of genotype A, “Long” strain RSV. Flasks were inoculated with RSV and viral stocks were collected once cytopathic effect (CPE) was greater than 90%. Viral stocks in 25% sucrose media were snap frozen using liquid nitrogen to increase viral stability. Viral stock titers were quantified by tissue culture infectious dose 50% (TCID50) using 8,000 cells per well and 3-fold viral dilutions across a 96-well plate, cultured for 4 days.
Following extensive parameter testing, the final assay is run as follows: HEp-2 cells are seeded into the inner 60 wells of a 96-well plate at 8,000 cells per well in a volume of 50 μL using Growth Media (DMEM without phenol red, 1% L-Glut, 1% Penn/Strep, 1% nonessential amino acids, 10% FBS). 2-fold serial dilutions of control and test compounds are added to the wells in duplicate in a total volume of 25 μL. Viral stock is then added to the wells in a volume of […] the total volume of each well to 100 μL. Each 96-well plate has a control column of 6 wells with cells and virus but no compound (negative control, max CPE), a column with cells but no compound or virus (positive control, minimum CPE), and a column with no cells or virus or compound (background plate/reagent control). The control wells with cells but no virus are given an additional 25 uL of growth media containing an equal quantity of sucrose as those wells receiving the viral stock in order to keep consistent in media and volume conditions. The outer wells of the plate are filled with 125 μL of growth media to act as a thermal and evaporative moat around the test wells. Following a 4-day incubation period, the plates are read using ATPlite (50 uL added per well), which quantifies the amount of ATP (a measure of cell health) present in each well. Assay plates are read using the Envision luminometer. […] EC50 ranges are as follows: A<1 μM; B 1-5 μM; C>5 μM.

SMILES: O=C1Nc2ccccc2C(c2ccccc2)=C[C@@H]1Nc1nnc(-c2ccc(F)cc2)o1 [Example 1, (S)-3-((5-(4-fluorophenyl)-1,3,4-oxadiazol-2-yl)amino)-5-phenyl-1,3-dihydro-2H-benzo[b]azepin-2-one]
- EC50: 1 to 5 µM

SMILES: O=C1Nc2ccccc2C(c2ccccc2)=C[C@@H]1Nc1nnc(-c2cn(-c3ccccn3)nc2N2CCOCC2)o1 [Example 2]
- EC50: 1 to 5 µM

SMILES: O=C1Nc2ccccc2C(c2ccccc2)=C[C@@H]1Nc1nnc(-c2ccc(N3CCOCC3)cc2F)o1 [Example 3]
- EC50: 1 to 5 µM

SMILES: O=C1Nc2ccccc2C(c2ccccc2)=C[C@@H]1Nc1nnc(-c2cccnc2N2CCOCC2)o1 [Example 4]
- EC50: 1 to 5 µM

SMILES: O=C1Nc2ccccc2C(c2ccccc2)=C[C@@H]1Nc1nnc(-c2ncc(C3CC3)cc2N2CCOCC2)o1 [Example 5]
- EC50: < 1 µM

SMILES: C#Cc1cnc(-c2nnc(N[C@H]3C=C(c4ccccc4)c4ccccc4NC3=O)o2)c(N2CCOCC2)c1 [Example 6]
- EC50: < 1 µM

SMILES: O=C1Nc2ccccc2C(c2ccccc2)=C[C@@H]1Nc1nnc(-c2ncc(Br)cc2N2CCOCC2)o1 [Example 7]
- EC50: < 1 µM

SMILES: N#Cc1cnc(-c2nnc(N[C@H]3C=C(c4ccccc4)c4ccccc4NC3=O)o2)c(N2CCOCC2)c1 [Example 8]
- EC50: < 1 µM

SMILES: O=C1Nc2ccccc2C(c2ccccc2)=C[C@@H]1Nc1nnc(-c2ncc(C3CCC3)cc2N2CCOCC2)o1 [Example 9]
- EC50: 1 to 5 µM

SMILES: O=C1Nc2ccccc2C(c2ccccc2)=C[C@@H]1Nc1nnc(-c2ncc(C(F)(F)F)cc2N2CCOCC2)o1 [Example 10]
- EC50: < 1 µM

SMILES: O=C1Nc2ccccc2C(c2ccccc2)=C[C@@H]1Nc1nnc(-c2nc(C3CC3)sc2N2CCOCC2)o1 [Example 11, (S)-3-((5-(2-cyclopropyl-5-morpholinothiazol-4-yl)-1,3,4-oxadiazol-2-yl)amino)-5-phenyl-1,3-dihydro-2H-benzo[b]azepin-2-one]
- EC50: < 1 µM

SMILES: O=C1Nc2ccccc2C(c2ccccc2)=C[C@H]1Nc1nnc(-c2nc(C3CC3)sc2N2CCOCC2)o1 [Example 12, (R)-3-((5-(2-cyclopropyl-5-morpholinothiazol-4-yl)-1,3,4-oxadiazol-2-yl)amino)-5-phenyl-1,3-dihydro-2H-benzo[b]azepin-2-one]
- EC50: < 1 µM

SMILES: O=C1Nc2ccccc2C(c2ccccc2)=C[C@@H]1Nc1nnc(-c2nc(-c3cccnc3)sc2N2CCOCC2)o1 [Example 13, (S)-3-((5-(5-morpholino-2-(pyridin-3-yl)thiazol-4-yl)-1,3,4-oxadiazol-2-yl)amino)-5-phenyl-1,3-dihydro-2H-benzo[b]azepin-2-one]
- EC50: < 1 µM

SMILES: O=C1Nc2ccccc2C(c2ccccc2)=C[C@H]1Nc1nnc(-c2nc(-c3cccnc3)sc2N2CCOCC2)o1 [Example 14, (R)-3-((5-(5-morpholino-2-(pyridin-3-yl)thiazol-4-yl)-1,3,4-oxadiazol-2-yl)amino)-5-phenyl-1,3-dihydro-2H-benzo[b]azepin-2-one]
- EC50: 1 to 5 µM

SMILES: O=C(Nc1ccccc1F)N[C@H]1C=C(c2ccccc2)c2ccccc2NC1=O [Example 15, (S)-1-(2-fluorophenyl)-3-(2-oxo-5-phenyl-2,3-dihydro-1H-benzo[b]azepin-3-yl)urea]
- EC50: > 5 µM

SMILES: O=C1Nc2ccccc2C(c2ccccc2)=C[C@@H]1Nc1nc2ccccc2o1 [Example 16, (S)-3-(benzo[d]oxazol-2-ylamino)-5-phenyl-1,3-dihydro-2H-benzo[b]azepin-2-one]
- EC50: > 5 µM

SMILES: O=C(N[C@H]1C=C(c2ccccc2)c2ccccc2NC1=O)c1ccccc1 [Example 17, (5)-N-(2-oxo-5-phenyl-2,3-dihydro-1H-benzo[b]azepin-3-yl)benzamide]
- EC50: > 5 µM

Source: US10647711B2, “Azepin-2-one derivatives as RSV inhibitors” (Enanta Pharmaceuticals, Inc., priority 2017, dated 2020)
